Results on ten compounds are retold here after US9296757B2, “Substituted benzothienopyrimidines” (BAYER PHARMA AKTIENGESELLSCHAFT, priority 2012, dated 2016).

Chain of human full-length MKNK1 (Q9BUB5 other isoform, or with tags, fused parts or gaps T344D): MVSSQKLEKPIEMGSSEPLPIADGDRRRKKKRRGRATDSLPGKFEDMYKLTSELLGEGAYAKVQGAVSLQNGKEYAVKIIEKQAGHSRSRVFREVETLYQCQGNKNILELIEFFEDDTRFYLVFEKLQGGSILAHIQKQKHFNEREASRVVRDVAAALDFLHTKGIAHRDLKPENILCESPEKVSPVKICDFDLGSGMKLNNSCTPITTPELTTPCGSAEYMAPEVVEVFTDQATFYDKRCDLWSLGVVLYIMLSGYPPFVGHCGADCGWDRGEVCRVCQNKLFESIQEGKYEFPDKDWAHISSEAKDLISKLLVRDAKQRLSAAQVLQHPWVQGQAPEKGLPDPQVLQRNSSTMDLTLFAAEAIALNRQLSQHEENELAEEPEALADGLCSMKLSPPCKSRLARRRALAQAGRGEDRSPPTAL

For this assay, the target named is human full-length MKNK1 (Homo sapiens (Human), UniProt Q9BUB5, T344D). The assay is described as follows: MKNK1 kinase high ATP assay (TR-FRET). The settings on record: high ATP (2 mM final), 15 min preincubation with enzyme. The format is biochemical. On the procedure:
MKNK1-inhibitory activity at high ATP of compounds of the present invention after their preincubation with MKNK1 was quantified employing the TR-FRET-based MKNK1 high ATP assay as described in the following paragraphs.
A recombinant fusion protein of Glutathione-S-Transferase (GST, N-terminally) and human full-length MKNK1 (amino acids 1-424 and T344D of accession number BAA 19885.1), expressed in insect cells using baculovirus expression system and purified via glutathione sepharose affinity chromatography, was purchased from Carna Biosciences (product no 02-145) and used as enzyme. As substrate for the kinase reaction the biotinylated peptide biotin-Ahx-IKKRKLTRRKSLKG (C-terminus in amide form) was used, which can be purchased e.g. from the company Biosyntan (Berlin-Buch, Germany).
For the assay 50 nL of a 100 fold concentrated solution of the test compound in DMSO was pipetted into a black low volume 384 well microtiter plate (Greiner Bio-One, Frickenhausen, Germany), 2 μL of a solution of MKNK1 in aqueous assay buffer [50 mM HEPES pH 7.5, 5 mM MgCl2, 1.0 mM dithiothreitol, 0.005% (v/v) Nonidet-P40 (Sigma)] was added and the mixture was incubated for 15 min at 22° C. to allow pre-binding of the test compounds to the enzyme before the start of the kinase reaction. Then the kinase reaction was started by the addition of 3 μL of a solution of adenosine-tri-phosphate (ATP, 3.3 mM=>final conc. in the 5 μL assay volume is 2 mM) and substrate (0.1 μM=>final conc. in the 5 μL assay volume is 0.06 μM) in assay buffer and the resulting mixture was incubated for a reaction time of 30 min at 22° C. The concentration of MKNK1 was adjusted depending of the activity of the enzyme lot and was chosen appropriate to have the assay in the linear range, typical concentrations were in the range of 0.003 μg/mL. The reaction was stopped by the addition of 5 μL of a solution of TR-FRET detection reagents (5 nM streptavidine-XL665 [Cisbio Bioassays, Codolet, France] and 1 nM anti-ribosomal protein S6 (pSer236)-antibody from Invitrogen [#44921G] and 1 nM LANCE EU-W1024 labeled ProteinG [Perkin-Elmer, product no. AD0071]) in an aqueous EDTA-solution (100 mM EDTA, 0.1% (w/v) bovine serum albumin in 50 mM HEPES pH 7.5).
The resulting mixture was incubated for 1 h at 22° C. to allow the formation of complex between the phosphorylated biotinylated peptide and the detection reagents. Subsequently the amount of phosphorylated substrate was evaluated by measurement of the resonance energy transfer from the Eu-chelate to the streptavidine-XL. Therefore, the fluorescence emissions at 620 nm and 665 nm after excitation at 350 nm were measured in a TR-FRET reader, e.g. a Rubystar (BMG Labtechnologies, Offenburg, Germany) or a Viewlux (Perkin-Elmer). The ratio of the emissions at 665 nm and at […] was taken as the measure for the amount of phosphorylated substrate. The data were normalised (enzyme reaction without inhibitor=0% inhibition, all other assay components but no enzyme=100% inhibition).
(In general: Time-resolved FRET reads energy transfer from a long-lived donor to a nearby acceptor.)
A word on the IC50: it is the concentration that gives 50% inhibition. `COc1cc2[nH]c(=O)sc2cc1Nc1ncnc2sc3c(c12)CCC(C(=O)O)C3` (stereo not shown) [Example 33, 4-[(5-Methoxy-2-oxo-2,3-dihydro-1,3-benzothiazol-6-yl)amino]-5,6,7,8-tetrahydro[1]benzothieno[2,3-d]pyrimidine-7-carboxylic acid]: the IC50 is 0.042 µM. That is a double-digit nanomolar value. To `CC(C)(O)C(=O)NCC1CCc2c(sc3ncnc(Nc4ccc5[nH]c(=O)sc5c4)c23)C1` (racemic) [Example 25, (RS)-2-Hydroxy-2-methyl-N-({4-[(2-oxo-2,3-dihydro-1,3-benzothiazol-6-yl)amino]-5,6,7,8-tetrahydro[1]benzothieno[2,3-d]pyrimidin-7-yl}methyl)propanamide] belongs 0.042 µM; to `CN(CCC#N)C(=O)C1CCc2c(sc3ncnc(Nc4ccc5[nH]c(=O)sc5c4)c23)C1` (racemic) [Example 48, (RS)-N-(2-cyanoethyl)-N-methyl-4-[(2-oxo-2,3-dihydro-1,3-benzothiazol-6-yl)amino]-5,6,7,8-tetrahydro[1]benzothieno[2,3-d]pyrimidine-7-carboxamide], 0.065 µM. In turn, `CN(CC#N)C(=O)C1CCc2c(sc3ncnc(Nc4ccc5[nH]c(=O)sc5c4)c23)C1` (racemic) [Example 49, (RS)-N-(cyanomethyl)-N-methyl-4-[(2-oxo-2,3-dihydro-1,3-benzothiazol-6-yl)amino]-5,6,7,8-tetrahydro[1]benzothieno[2,3-d]pyrimidine-7-carboxamide] gave an IC50 of 0.045 µM. To `O=C(C1CCc2c(sc3ncnc(Nc4ccc5[nH]c(=O)sc5c4)c23)C1)N1CCN(CCCO)CC1` (racemic) [Example 57, (RS)-6-[(7-{[4-(3-hydroxypropyl)piperazin-1-yl]carbonyl}-5,6,7,8-tetrahydro[1]benzothieno[2,3-d]pyrimidin-4-yl)amino]-1,3-benzothiazol-2(3H)-one] belongs 0.039 µM; to `CN(C)C1CCN(C(=O)C2CCc3c(sc4ncnc(Nc5ccc6[nH]c(=O)sc6c5)c34)C2)C1` (racemic) [Example 73, 6-{[(7RS)-7-{[(3RS)-3-(dimethylamino)pyrrolidin-1-yl]carbonyl}-5,6,7,8-tetrahydro[1]benzothieno[2,3-d]pyrimidin-4-yl]amino}-1,3-benzothiazol-2(3H)-one], 0.034 µM. On to `N#CC1CN(C(=O)C2CCc3c(sc4ncnc(Nc5ccc6[nH]c(=O)sc6c5)c34)C2)C1` (racemic) [Example 91, (RS)-1-({4-[(2-Oxo-2,3-dihydro-1,3-benzothiazol-6-yl)amino]-5,6,7,8-tetrahydro[1]benzothieno[2,3-d]pyrimidin-7-yl}carbonyl)azetidine-3-carbonitrile], for which the concentration for half-maximal inhibition (IC50) was 0.0387 µM. The value for `CCNC(=O)C1CCc2c(sc3ncnc(Nc4ccc5[nH]c(=O)sc5c4)c23)C1` (racemic) [Example 3, (RS)—N-Ethyl-4-[(2-oxo-2,3-dihydro-1,3-benzothiazol-6-yl)amino]-5,6,7,8-tetrahydro[1]benzothieno[2,3-d]pyrimidine-7-carboxamide] was 0.039 µM; that for `COc1cc2[nH]c(=O)sc2cc1Nc1ncnc2sc3c(c12)CCC(C(=O)N(CCN(C)C)Cc1ccccc1)C3` (racemic) [Example 92, (RS)—N-Benzyl-N-[2-(dimethylamino)ethyl]-4-[(5-methoxy-2-oxo-2,3-dihydro-1,3-benzothiazol-6-yl)amino]-5,6,7,8-tetrahydro[1]benzothieno[2,3-d]pyrimidine-7-carboxamide] was 0.0006 µM.

The compound `O=C(NCc1ccccc1)C1CCc2c(sc3ncnc(Nc4ccc5[nH]c(=O)sc5c4)c23)C1` (racemic) [Example 9, (RS)—N-Benzyl-4-[(2-oxo-2,3-dihydro-1,3-benzothiazol-6-yl)amino]-5,6,7,8-tetrahydro[1]benzothieno[2,3-d]pyrimidine-7-carboxamide] showed a half-maximal inhibitory concentration (IC50) of 0.009 µM.
